Laboratory results: ChEMBL document CHEMBL5120826, “Effects of β-lapachone and β-nor-lapachone on multidrug efflux transporters and biofilms of Candida glabrata” (Bioorg Med Chem, 2022)
Calls of active or inactive are those of the source. The calls are words filed in the database; no cut-off is given here.

Columns and labels:
Saccharomyces cerevisiae [1] = assay: Synergistic antifungal activity against fluconazole resistant Saccharomyces cerevisiae overexpressing CgCdr2p transporter assessed as fractional inhibitory concentration incubated for 48 hrs in presence of lapachone by checkboard assay based microplate reader analysis; assay type: functional
Saccharomyces cerevisiae [2] = assay: Inhibition of fluconazole resistant Saccharomyces cerevisiae overexpressing CgCdr2p transporter ATPase activity assessed as reduction in inorganic phosphate release in presence of ATP incubated for 1 hr by Fiske and Sub barrow method; settings: concentration not given here
Nakaseomyces glabratus [3] = assay: Disruption of plasma membrane integrity in fluconazole resistant Candida glabrata 109 overexpressing CgCdr1p transporter assessed as fold increase in sytox green fluorescence intensity at 200 ug/ml incubated for 48 hrs by fluorescence based assay; assay type: functional; settings: dose 200 µg/ml
Saccharomyces cerevisiae [4] = assay: Synergistic antifungal activity against fluconazole resistant Saccharomyces cerevisiae overexpressing CgCdr2p transporter assessed as fractional inhibitory concentration in presence of fluconazole incubated for 48 hrs by checkboard assay based microplate reader analysis; assay type: functional
Erythrocyte [5] = assay: Hemolytic activity in human erythrocytes assessed as haemoglobin release at 12.5 ug/ml incubated for 1 hr in presence of fluconazole by absorbance based method; assay type: toxicity, cell-based; settings: dose 12.5 µg/ml
Nakaseomyces glabratus [6] = assay: Induction of ROS generation in fluconazole resistant Candida glabrata 109 overexpressing CgCdr1p assessed as fold increase in ROS level incubated for 90 mins by DCFH-DA dye based fluorescence assay; assay type: functional; settings: 1.5 h
Saccharomyces cerevisiae [7] = assay: Antifungal activity against fluconazole resistant Saccharomyces cerevisiae overexpressing CgCdr1p transporter assessed as reduction in fungal growth incubated for 48 hrs in presence of fluconazole by serial dilution method; assay type: functional, organism-based
Saccharomyces cerevisiae [8] = assay: Synergistic antifungal activity against fluconazole resistant Saccharomyces cerevisiae overexpressing CgCdr1p transporter assessed as fractional inhibitory concentration index incubated for 48 hrs by checkboard assay based microplate reader analysis; assay type: functional
Saccharomyces cerevisiae [9] = assay: Antifungal activity against fluconazole resistant Saccharomyces cerevisiae overexpressing CgCdr2p transporter assessed as reduction in fungal growth incubated for 48 hrs in presence of fluconazole by serial dilution method; assay type: functional, organism-based
Nakaseomyces glabratus [10] = assay: Induction of morphological changes in fluconazole resistant Candida glabrata 109 overexpressing CgCdr1p transporter assessed as decrease in number of cells within biofilm at 200 ug/ml incubated for 48 hrs by SEM analysis; assay type: functional, organism-based; settings: dose 200.0 µg/ml
Saccharomyces cerevisiae [11] = assay: Synergistic antifungal activity against fluconazole resistant Saccharomyces cerevisiae overexpressing CgCdr1p transporter assessed as fractional inhibitory concentration in presence of fluconazole incubated for 48 hrs by checkboard assay based microplate reader analysis; assay type: functional
Saccharomyces cerevisiae [12] = assay: Synergistic antifungal activity against fluconazole resistant Saccharomyces cerevisiae overexpressing CgCdr1p transporter assessed as fractional inhibitory concentration incubated for 48 hrs in presence of lapachone by checkboard assay based microplate reader analysis; assay type: functional
Nakaseomyces glabratus [13] = assay: Antibiofilm activity against fluconazole resistant Candida glabrata 109 overexpressing CgCdr1p transporter assessed as reduction in metabolic activity at highest concentration incubated for 48 hrs; assay type: functional; design: scale not given: the % may be the effect or the level left
Nakaseomyces glabratus [14] = assay: Induction of morphological changes in fluconazole resistant Candida glabrata 109 overexpressing CgCdr1p transporter assessed as decrease in cell-cell adhesion at 200 ug/ml by calcofluor white dye based confocal laser scanning microscopy; assay type: functional, organism-based; settings: dose 200.0 µg/ml
[15] = Inhibition of fluconazole resistant Candida glabrata 109 overexpressing CgCdr1p transporter […] cell adhesion to polystyrene at 200 ug/ml incubated for 90 mins by MTT assay; assay type: functional; settings: Nakaseomyces glabratus, 109, 1.5 h
Saccharomyces cerevisiae [16] = assay: Synergistic antifungal activity against fluconazole resistant Saccharomyces cerevisiae overexpressing CgCdr2p transporter assessed as reduction in fungal growth incubated for 48 hrs in presence of fluconazole by checkboard assay based microplate reader analysis; assay type: functional
Saccharomyces cerevisiae [17] = assay: Synergistic antifungal activity against fluconazole resistant Saccharomyces cerevisiae overexpressing CgCdr1p transporter assessed as reduction in fungal growth incubated for 48 hrs in presence of fluconazole by checkboard assay based microplate reader analysis; assay type: functional
Saccharomyces cerevisiae [18] = assay: Synergistic antifungal activity against fluconazole resistant Saccharomyces cerevisiae overexpressing CgCdr2p transporter assessed as reduction in fungal growth incubated for 48 hrs in presence of lapachone by checkboard assay based microplate reader analysis; assay type: functional
Erythrocyte [19] = assay: Hemolytic activity in human erythrocytes assessed as haemoglobin release at 12.5 ug/ml incubated for 1 hr by absorbance based method; assay type: toxicity, cell-based; settings: dose 12.5 µg/ml
Nakaseomyces glabratus [20] = assay: Disruption of plasma membrane integrity in fluconazole resistant Candida glabrata 109 overexpressing CgCdr1p transporter assessed as fold increase in sytox green fluorescence intensity at 50 ug/ml incubated for 48 hrs by fluorescence based assay; assay type: functional; settings: dose 50 µg/ml
Nakaseomyces glabratus [21] = assay: Inhibition of fluconazole resistant Candida glabrata 109 overexpressing CgCdr1p transporter ATPase activity assessed as reduction in inorganic phosphate release in presence of ATP incubated for 1 hr by Fiske and Sub barrow method; settings: concentration not given here
Saccharomyces cerevisiae [22] = assay: Synergistic antifungal activity against fluconazole resistant Saccharomyces cerevisiae overexpressing CgCdr1p transporter assessed as reduction in fungal growth incubated for 48 hrs in presence of lapachone by checkboard assay based microplate reader analysis; assay type: functional
Saccharomyces cerevisiae [23] = assay: Additive antifungal activity against fluconazole resistant Saccharomyces cerevisiae overexpressing CgCdr1p transporter assessed as fractional inhibitory concentration in presence of fluconazole incubated for 48 hrs by checkboard assay based microplate reader analysis; assay type: functional
Saccharomyces cerevisiae [24] = assay: Additive antifungal activity against fluconazole resistant Saccharomyces cerevisiae overexpressing CgCdr1p transporter assessed as fractional inhibitory concentration index incubated for 48 hrs by checkboard assay based microplate reader analysis; assay type: functional
Erythrocyte [25] = assay: Hemolytic activity in human erythrocytes assessed as haemoglobin release at 50 ug/ml incubated for 1 hr in presence of fluconazole by absorbance based method; assay type: toxicity, cell-based; settings: dose 50 µg/ml
Saccharomyces cerevisiae [26] = assay: Additive antifungal activity against fluconazole resistant Saccharomyces cerevisiae overexpressing CgCdr1p transporter assessed as fractional inhibitory concentration incubated for 48 hrs in presence of lapachone by checkboard assay based microplate reader analysis; assay type: functional
Saccharomyces cerevisiae [27] = assay: Additive antifungal activity against fluconazole resistant Saccharomyces cerevisiae overexpressing CgCdr1p transporter assessed as reduction in fungal growth incubated for 48 hrs in presence of lapachone by checkboard assay based microplate reader analysis; assay type: functional
Saccharomyces cerevisiae [28] = assay: Additive antifungal activity against fluconazole resistant Saccharomyces cerevisiae overexpressing CgCdr1p transporter assessed as reduction in fungal growth incubated for 48 hrs in presence of fluconazole by checkboard assay based microplate reader analysis; assay type: functional
Erythrocyte [29] = assay: Hemolytic activity in human erythrocytes assessed as haemoglobin release at 50 ug/ml incubated for 1 hr by absorbance based method; assay type: toxicity, cell-based; settings: dose 50 µg/ml

CC1(C)CCC2=C(O1)c1ccccc1C(=O)C2=O [LAPACHONE]
FIC (Saccharomyces cerevisiae [1]): 0.25 µg/mL | inhibition (Saccharomyces cerevisiae [2]): 46% | fold change (FC) (Nakaseomyces glabratus [3]): 3 | FIC (Saccharomyces cerevisiae [4]): 0.06 µg/mL | Activity (Erythrocyte [5]): Non-Toxic | fold change (FC) (Nakaseomyces glabratus [6]): 5 | Activity (Saccharomyces cerevisiae [7]): Active | fractional inhibitory concentration index (FICI) (Saccharomyces cerevisiae [8]): 0.5 | Activity (Saccharomyces cerevisiae [9]): Active | Activity (Nakaseomyces glabratus [10]): Active | FIC (Saccharomyces cerevisiae [11]): 0.25 µg/mL | FIC (Saccharomyces cerevisiae [12]): 0.25 µg/mL | Activity (Nakaseomyces glabratus [13]): 88% | Activity (Nakaseomyces glabratus [14]): Active | inhibition at 200 µg/mL [15]: 44% | MIC (Saccharomyces cerevisiae [16]): 3.9 µg/mL | MIC (Saccharomyces cerevisiae [17]): 125 µg/mL | MIC (Saccharomyces cerevisiae [18]): 6.25 µg/mL | Activity (Erythrocyte [19]): Non-Toxic | fold change (FC) (Nakaseomyces glabratus [20]): 1.6 | inhibition (Nakaseomyces glabratus [21]): 49% | MIC (Saccharomyces cerevisiae [22]): 25 µg/mL

CC1(C)CC2=C(O1)c1ccccc1C(=O)C2=O [NOR-BETA-LAPACHONE]
FIC (Saccharomyces cerevisiae [23]): 0.125 µg/mL | fractional inhibitory concentration index (FICI) (Saccharomyces cerevisiae [24]): 0.625 | Activity (Erythrocyte [25]): Non-Toxic | fold change (FC) (Nakaseomyces glabratus [6]): 5 | FIC (Saccharomyces cerevisiae [26]): 0.5 µg/mL | Activity (Saccharomyces cerevisiae [7]): Active | MIC (Saccharomyces cerevisiae [27]): 25 µg/mL | Activity (Saccharomyces cerevisiae [9]): Active | Activity (Nakaseomyces glabratus [10]): Active | Activity (Nakaseomyces glabratus [13]): 46% | Activity (Nakaseomyces glabratus [14]): Active | MIC (Saccharomyces cerevisiae [28]): 62.5 µg/mL | Activity (Erythrocyte [29]): Non-Toxic
